Reference: patent publication US9986723B2, “Screen and use of therapeutics for pancreatic ductal adenocarcinoma” (The Board of Regents of the University of Texas System, priority 2014, dated 2018)

Experiments:
[1] = test system: AsPC-1, Mia PaCa-2, and Capan-1 cells; test: Soft agar anchorage-independent growth assay; assay type: cell-based, human; conditions: warfarin 2 μM, 14 days; Axl-expressing cells
Description: (§1) FIGS. 25A-I. Axl inhibition reduces colony formation and enhances chemotherapy. (FIGS. 25A-C) parental Mia PaCa-2 cells or Mia PaCa-2 cells stably transfected with shRNA targeting Axl (Mia shAxl) were grown as spheroids in matrigel for 7 days in the presence or absence of warfarin (200 ng/ml), n=4/condition. Mia PaCa-2 cell colonies form large stellate colonies characteristic of invasive tumor growth. Colonies and cognate cell projections were imaged (FIG. 25A) with a Nikon Phase contrast microscope using 40× and 200× magnification. Mean total colony number (FIG. 25B) and total colony area+/−s.d. (FIG. 25C) reflective of invasive growth were calculated using Image J image analysis. Scale bar, 100 μm. ****, p<0.001 vs Mia PaCa-2 NT; ##, p<0.01; ###, p<0.005. by ANOVA with Tukey's MCT. […] (FIG. 25E) liver metastases were quantified after intrasplenic injection of C5LM2 cells. […] Mice were sacrificed when control treated animals were moribund and primary and metastatic burden was determined. […]
Anchorage-independent growth assays were performed by coating 12 well plates with 0.5-0.75% agar. […] Fresh media and drug were added twice weekly and colonies were measured by light microscopy at 2 weeks; assays were performed in quadruplicate.

Panc-1 cells = test: In vitro EMT assay (TGF-β and collagen); assay type: cell-based, human; conditions: warfarin 2 μM
Description: FIGS. 26A-C. […] (FIG. 26A) the expression level of pAxl, Zeb1 and nuclear β-catenin in Panc1 cells in vitro was measured by immunofluorescence under normal culture conditions or after growth on collagen matrix and treatment with TGF-β (20 ng/ml) to induce epithelial to mesenchymal transition, with or without warfarin (2 μM). p-Axl was normalized to total Axl area. (FIG. 26B) Panc1 cells were treated with either SFM, recombinant Gas 6 (100 ng/ml) or Gas6 following pretreatment with 10C9 (mAb anti-Axl). Transition to a mesenchymal phenotype was characterized by changes in vimentin and nuclear Zeb1 expression determined by immunofluoresence. […] (FIG. 26C) Paraffin embedded sections of Panc-1 tumors were analyzed by immunofluorescence for markers of EMT.

ASPC = test: MTS cell growth assay, gemcitabine +/- warfarin; assay type: cell-based, human; conditions: warfarin 2 μM
Description: (§2) Cytotoxicity and augmentation of chemotherapy response was measured by MTS assays conducted in 96-well plates; cells were plated on day 0 and drug was added on day 1 in 4-fold dilutions. Maximum concentration of 2,000 nmol/L for gemcitabine was used with or without the addition of a constant concentration of 2 μM warfarin or 1.1 μM 10C9. Relative cell number was determined by adding MTS (Promega; final concentration […]), incubating for 1 to 3 hours at 37° C., and reading absorbance. Drug sensitivity curves and IC50s were calculated using in-house software.

Panc1 = test: MTS cell growth assay, gemcitabine +/- warfarin; assay type: cell-based, human; conditions: warfarin 2 μM
Description: as §2

Mia PaCa-2 cells = test: Spheroid assay in matrigel (3D culture); assay type: cell-based, human; conditions: warfarin 200 ng/ml, 7 days
Description: as §1, with “analysis.” for “analysis. Scale bar, 100 μm. ****, p<0.001 vs Mia PaCa-2 NT; ##, p<0.01; ###, p<0.005. by ANOVA with Tukey's MCT.”
For spheroid assays, matrigel was coated on 18×18 mm glass cover-slides in a 35 mm culture dish, using Reduced Growth Factor Matrigel (BD Bioscience) as described previously (Gjerdrum et al., 2010; Lee et al., 2007). […] Quantitative analysis of 3D organotypic structures was performed using Image J analysis software. Total number of established structures and the ability of established structures to migrate into the BM (Total area) were quantified and compared.

Axl = target: T1, Axl (Homo sapiens, UniProt P30530); test: Phosphorylated Axl in Panc-1 cells (western blot, immunofluorescence); assay type: cell-based; conditions: overnight, 1% serum, 2 μM
T1 construct: Lysates were probed for total Axl (tAxl) and phosphorylated Axl (pAxl); endogenous in cells; host or cells: Panc-1
T1 sequence (P30530 26-894): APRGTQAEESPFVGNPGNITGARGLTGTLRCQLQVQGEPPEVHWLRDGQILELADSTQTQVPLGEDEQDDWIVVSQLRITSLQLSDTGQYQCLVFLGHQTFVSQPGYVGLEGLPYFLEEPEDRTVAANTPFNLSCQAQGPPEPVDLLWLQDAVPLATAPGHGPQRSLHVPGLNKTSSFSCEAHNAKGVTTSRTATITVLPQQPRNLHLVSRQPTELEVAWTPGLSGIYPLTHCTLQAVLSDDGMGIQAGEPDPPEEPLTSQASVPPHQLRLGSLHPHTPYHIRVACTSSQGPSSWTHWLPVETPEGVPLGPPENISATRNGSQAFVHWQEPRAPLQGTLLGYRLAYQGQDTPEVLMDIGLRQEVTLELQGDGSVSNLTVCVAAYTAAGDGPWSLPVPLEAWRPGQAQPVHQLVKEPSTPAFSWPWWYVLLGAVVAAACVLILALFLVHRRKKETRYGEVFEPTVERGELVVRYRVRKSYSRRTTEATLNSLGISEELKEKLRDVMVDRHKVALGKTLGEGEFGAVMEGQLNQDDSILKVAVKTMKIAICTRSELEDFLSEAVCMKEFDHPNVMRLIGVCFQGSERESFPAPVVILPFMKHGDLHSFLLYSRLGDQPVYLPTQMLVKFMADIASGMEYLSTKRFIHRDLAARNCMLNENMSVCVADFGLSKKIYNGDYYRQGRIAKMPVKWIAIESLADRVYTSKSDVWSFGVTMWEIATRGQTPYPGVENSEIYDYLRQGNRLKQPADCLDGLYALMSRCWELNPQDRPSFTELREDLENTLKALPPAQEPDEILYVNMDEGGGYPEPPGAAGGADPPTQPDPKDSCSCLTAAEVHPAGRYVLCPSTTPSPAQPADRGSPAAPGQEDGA
Description: (FIG. 24A) HEK293 cells engineered to stably express recombinant Gas6 were grown in the presence of Vitamin K or Vitamin K+warfarin. Gas6 levels and γ-carboxylation were assayed by immunoblotting conditioned media. Conditioned media from untransfected HEK293 cells was used as a negative control. (FIG. 24B) Panc1 cells were grown overnight in media with 1% serum with no additions (NT), warfarin (2 μM) or BGB324 (2 μM). Lysates were probed for total Axl (tAxl) and phosphorylated Axl (pAxl). (FIG. 24C) Panc1 cells were grown in the presence of control media, Vitamin K, warfarin or warfarin+Vitamin K. The level of phosphorylated Axl (pAXL, red) was determined by immunofluorescence. (FIG. 24D) Panc1 cells were grown overnight in media with 1% serum with no additions (control), warfarin (1 μM), Gas6 (1.3 nM) or Gas6+warfarin. Lysates were probed for phosphorylated Akt (pAkt) and actin. (FIG. 24E) Lysates from Panc1 tumors harvested from mice treated with control or warfarin were probed for expression of tAxl, pAxl, actin, pAKT, tAKT, and cleaved Parp. (FIG. 24F) The effect of warfarin on cell migration was assessed by a ‘scratch’ assay. Monolayers of the indicted cells were wounded with a pipet tip. The cells were incubated in media containing 2% serum+/−warfarin (2 μM) or media containing 2% serum+Gas6 (1.3 nM)+/−warfarin.

Fold Reduction of gemcitabine IC50 in presence of warfarin (ASPC): 8.4 fold | Fold Reduction of gemcitabine IC50 in presence of warfarin (Panc1): 211 fold | phosphorylation of Axl (pAxl) (Axl): inhibited basal pAxl levels
Structure (SMILES): CC(=O)CC(c1ccccc1)c1c(O)c2ccccc2oc1=O (racemic) [Warfarin]
anchorage independent growth [1]: inhibited | Zeb1 and nuclear β-catenin levels (Panc-1 cells; TGF-β 20 ng/ml, collagen): significantly reduced | TGFβ and collagen I enhanced Axl expression and activation (Panc-1 cells): blocked | tumor cell sphere formation and invasiveness in 3D culture (Mia PaCa-2 cells): inhibited
